Where a name gives a salt, the structure may show the parent alone.
Key:
adrenergic receptors [1] = test: α-blocking activity, parenteral (LL 1756); format: in vivo
man [2] = test: Clinical studies in man, tablets or injectable ampoules (product of Example 2); format: in vivo; settings: tablets (50 mg) or injectable ampoules (10 mg)
Text: In clinical studies, good results were obtained in man by administering tablets such as: […]

femoral artery = test: Vasodilating properties, injection into the femoral artery; format: in vivo, dogs
Protocol: On injection into the femoral artery, no effect is observed at doses of less than 100 μg/kg. […] At these doses, no effect is observed on the arterial pressure AP measured in accordance with the usual conditions.

dogs [3] = test: Coronary flow rate and haemodynamics in anaesthetised dogs, intravenous perfusion; format: in vivo
Protocol: (§2) During the series of pharmacological tests, the following parameters were used:
(§3) Arterial pressure (abbreviated to AP): this parameter, expressed in mm Hg) is evaluated in accordance with the usual conditions.
Arterial resistance: this parameter (expressed in dynes/sec./cm^^-5) is calculated according to the ratio [formula]
Cardiac index: this parameter is expressed in ml/min./kg.
Systolic index: this parameter is equal to the ratio cardiac index/frequency.
Cardiac work: this parameter (expressed in kgm/min.) is calculated according to the relationship: Cardiac work = average AP (mm Hg) × 1.36 = cardiac output (1/min.) × 10^^-3.
Ratio dp/dt: this parameter corresponds to the variation in pressure expressed in mm Hg per second (in English: Rate of rise of left ventricular pressure).
The technique used to measure the ratio dp/dt is as follows:
The cardiac output is determined in Beagle dogs weighing 10 to 15 kg, anesthetised with pentobarbital, by injecting Cardiogreen (1 mg in 0.5 ml) into the right ventricle. A catheter introduced via the carotid artery into the aorta makes it possible to aspirate arterial blood at the rate of 25 ml/min. and to pass it in front of the photoelectric cell of a Beckman cardiodensitometer. The results are interpreted in accordance with the Hamilton method.

adrenergic receptors [4] = test: Effect on responses to adrenalin, acetylcholine, isoprenalin and vagus stimulation (product of Example 2); format: in vivo, dogs
adrenergic receptors [5] = test: Oral α-blocking activity in dogs (hypertensive effects of adrenalin); format: in vivo; settings: orally
vertebral artery = test: Vasodilating properties, injection into the vertebral artery; format: in vivo, dogs
Protocol: On injection into the vertebral artery, no effect is observed at doses of less than 1 mg/kg. At a dose of 10 mg/kg, the flow rate increases by 37% and at a dose of 20 mg/kg it only increases by 27%. At these two doses, the arterial pressure decreases respectively by 14 and 28% although no effect had been observed during the injection into the femoral artery.

[6] = tested on: vertebral, femoral and mesenteric arteries; test: Vasodilating properties, intravenous administration, arterial flow rates; format: in vivo, dogs; settings: for increase in vertebral flow rate: 0.25 mg/kg perfused i.v.
Protocol: When administered intravenously, the following results were observed:
A third test is carried out by injecting, without stopping, 0.5, 1, 2 and 4 mg/kg, that is to say a total of 7.5 mg/kg.

man [7] = test: Administration to man in vascular complaints (product of Example 3); format: in vivo; settings: tablets containing 20 mg, 2 to 3 per day
dogs [8] = test: Cardiovascular properties of the product of Example 3 in dogs; format: in vivo
Protocol: as §3
When administered intravenously to dogs at doses ranging from 1 mg to 13 mg/kg, the following results are observed:

adrenergic receptors [9] = test: Reversal of hypertensive effect of adrenalin (α-blocking), product of Example 3; format: in vivo, dogs
adrenergic receptors [10] = test: Reversal of hypertensive effect of adrenalin (α-blocking), product of Example 8; format: in vivo; settings: dogs
dogs [11] = test: Intravenous perfusion in dogs anaesthetised with Nembutal (product of Example 8); format: in vivo; settings: 2.5 mg/kg i.v. over 5 minutes
Protocol: as §2, §3
The product of Example 8 was perfused intravenously over the course of 5 minutes at doses of 2.5 and 5 mg/kg.

[12] = tested on: femoral and vertebral arteries; test: Oral administration, arterial flow rates (product of Example 8); format: in vivo, dogs; settings: orally
adrenalin = test: Effect on the amines and reflexes: adrenalin; settings: in vivo
Text: (§1) In Table III below, the effects of the products on the amines and the reflexes have been summarised.

acetylcholine = test: Effect on the amines and reflexes: acetylcholine; settings: in vivo
Text: as §1

DMPP = test: Effect on the amines and reflexes: DMPP; settings: in vivo
Text: as §1

adrenergic receptors [13] = test: Inhibition/reversal of tension effects of adrenalin, intravenous (products of Examples 11 to 13); format: in vivo; settings: i.v.
Protocol: the doses of CRL 40,150 from 0.5 to 4 mg/kg being administered successively.

peripheral vagus = test: Effect on the amines and reflexes: stimulation of the peripheral vagus; settings: in vivo
Text: as §1

central vagus = test: Effect on the amines and reflexes: stimulation of the central vagus; settings: in vivo
Text: as §1

[14] = Acute intravenous toxicity in mice, products of Examples 10 to 13 (LD50); settings: mouse, in vivo, i.v., group consisting solely of female mice
Text: (a) determined on a group of male and female mice,
(b) determined on a group consisting solely of female mice.

[15] = another test, 2 mg/kg at the very start

Structure (SMILES): OCCN1CCN(CC2COc3ccccc3O2)CC1 (stereo not drawn) [Example 1, 1-[2-(1,4-Benzodioxanyl)-methyl]-4-(2-hydroxyethyl)-piperazine dihydrochloride]
- α-blocking activity (adrenergic receptors [1]): α-blocking when administered parenterally

Structure (SMILES): OCCN1CCN(CC2COc3ccccc3O2)CC1 (stereo not drawn) [Example 2, 1-[2-(1,4-Benzodioxanyl)-methyl]-4-(2-hydroxyethyl)-piperazine hemifumarate]
- clinical result (man [2]): good results
- effect on arterial pressure AP (femoral artery; injection into femoral artery, 1, 10 and 20 mg/kg): no effect
- effect on flow rate of the femoral artery (femoral artery; injection into femoral artery, doses less than 100 μg/kg): no effect
- increase in coronary flow rate (dogs [3]; 5 mg/kg i.v., 2 hours after the injection): 75%
- increase in coronary flow rate, maximum effect (dogs [3]; 5 mg/kg i.v., after 1 hour): 200%
- increase in maximum intraventricular pressure (dogs [3]; 5 mg/kg i.v., for 1 hour): 56%
- increase in the differential arterial pressure (dogs [3]; 5 mg/kg i.v., for 1 hour): 40%
- increase in ratio dp/dt (dogs [3]; 5 mg/kg i.v., for more than 1 hour): 180%
- tachycardia (dogs [3]; 5 mg/kg i.v., increase): 40%
- effect on arterial pressure (summary) (dogs [3]; at a higher dose): at a higher dose, it is hypotensive
- tachycardiac properties (summary) (dogs [3]; at low doses): possesses tachycardiac properties at low doses
- cardiac work and coronary irrigation (summary) (dogs [3]; summary): increases the cardiac work and, in parallel fashion, it increases the coronary irrigation
- effect of the stimulation of the peripheral vagus (adrenergic receptors [4]; dogs): does not alter
- effects of the injection of acetylcholine (adrenergic receptors [4]; dogs): does not alter
- effects of the injection of isoprenalin (adrenergic receptors [4]; dogs): does not alter
- α-lytic action (summary) (adrenergic receptors [4]; summary): acts as an α-lytic product
- hypertensive effects of adrenalin (adrenergic receptors [5]; 5 mg/kg): decreases the said effects
- hypertensive effects of adrenalin (adrenergic receptors [5]; 7 mg/kg): inhibits them strongly
- α + effect of adrenalin (adrenergic receptors [5]; 10 mg/kg): overcomes the α + effect of adrenalin
- increase in flow rate (vertebral artery; 10 mg/kg): 37%
- increase in flow rate (vertebral artery; 20 mg/kg): 27%
- effect on vertebral flow rate (vertebral artery; doses less than 1 mg/kg): no effect
- duration of increase in vertebral flow rate [6, 15]: more than one hour
- flow rate of the femoral artery [6, 15]: only increased greatly during the injection
- increase in flow rate of the vertebral artery [6, 15]: 87%
- increase in vertebral flow rate ([6]; first test, end of perfusion): 14%
- increase in vertebral flow rate ([6]; first test, start of perfusion): 90%
- effect of additional injections on the flow rate ([6]; first test, additional 0.5 and 5 mg/kg): no effect on the flow rate
- effect of subsequent injections on the flow rate ([6]; second test, subsequent 1 and 2 mg/kg): no effect on the flow rate
- vasodilating action (summary) ([6]; summary): can dilate either the vertebral artery or the femoral artery or both
- femoral flow rate ([6]; third test, 0.5, 1, 2 and 4 mg/kg i.v. without stopping): increased very much by the first injection, decreases during the subsequent injections

Structure (SMILES): OCC(O)CN1CCN(CC2COc3ccccc3O2)CC1 (stereo not drawn) [Example 3, 1-[2-(1,4-Benzodioxanyl)-methyl]-4-(2,3-dihydroxypropyl)-piperazine dihydrochloride]
- result in vascular complaints (man [7]): good results in vascular complaints
- effect on the AP (dogs [8]; i.v., 1 mg to 13 mg/kg): little effect on the AP or a slight hypotension
- vertebral flow rate (dogs [8]; i.v., 1 mg to 13 mg/kg): no effect
- cardiovascular variations after intraduodenal administration (dogs [8]; intraduodenal, 10 and 50 mg/kg): the variations described after intravenous injection are found again
- α-blocking action (conclusion) (adrenergic receptors [9]; conclusion): α-blocking agent
- hypertensive effect of adrenalin (adrenergic receptors [9]; intraduodenal, 10 mg/kg): reversal of the hypertensive effect of adrenalin

Structure (SMILES): c1cnc(N2CCN(CC3COc4ccccc4O3)CC2)nc1 (stereo not drawn) [Example 8, 1-[2-(1,4-Benzodioxanyl)-methyl]-4-(2-pyrimidinyl)-piperazine dihydrochloride]
- hypertensive effect of adrenalin (adrenergic receptors [10]): the hypertensive effect of adrenalin is reversed, and this manifests itself in an α-blocking action
- decrease in the vertebral flow rate (dogs [11]): 19%
- effect on the mesenteric flow rate (dogs [11]): practically no effect
- increase in the differential arterial pressure (dogs [11]): 50%
- femoral vasodilating effect (dogs [11]; increase): 19%
- tachycardia (dogs [11]; increase): 19%
- passage into the general circulation ([12]; 10 mg/kg): passes into the general circulation
- rise in femoral flow rate ([12]; 1 to 10 mg/kg, for 30 minutes): 200%
- rise in vertebral flow rate ([12]; 1 to 10 mg/kg, for 30 minutes): 60%
- flow rate of the femoral artery ([12]; doses less than 100 μg/kg): does not alter
- flow rate of the vertebral artery ([12]; doses less than 100 μg/kg): does not alter

Structure (SMILES): COc1cc(OC)c(C(=O)CN2CCN(CC3COc4ccccc4O3)CC2)c(OC)c1 (stereo not drawn) [Example 13, 1-[2-(1,4-Benzodioxanyl)-methyl]-4-(2,4,6-trimethoxyphenacyl)-piperazine dihydrochloride]
- Effect on the amines and reflexes: adrenalin (adrenalin): reversal
- Effect on the amines and reflexes: acetylcholine (acetylcholine): no change
- Effect on the amines and reflexes: DMPP (DMPP): effect reversed
- dose from which the hypertensive effect of adrenalin is reduced (adrenergic receptors [13]): ≥ 0.1 mg/kg
- dose from which the hypotensive effect appears (adrenergic receptors [13]; average of three different experiments): ≥ 0.2 mg/kg
- Effect on the amines and reflexes: stimulation of the peripheral vagus (peripheral vagus): not changed
- Effect on the amines and reflexes: stimulation of the central vagus (central vagus): slightly reduced
- LD50 [14]: 58 mg/kg
